Results taken from ChEMBL document CHEMBL2401680, “A highly catalytically active γ-carbonic anhydrase from the pathogenic anaerobe Porphyromonas gingivalis and its inhibition profile with anions and small molecules” (Bioorg Med Chem Lett, 2013).

Key:
[1] = Inhibition of Porphyromonas gingivalis recombinant CA by CO2 hydration assay
[2] = target: T1, Carbonic anhydrase (Methanosarcina thermophila, UniProt P40881); test: Inhibition of Methanosarcina thermophila recombinant gamma-CA by CO2 hydration assay
T1 sequence (P40881 whole entry): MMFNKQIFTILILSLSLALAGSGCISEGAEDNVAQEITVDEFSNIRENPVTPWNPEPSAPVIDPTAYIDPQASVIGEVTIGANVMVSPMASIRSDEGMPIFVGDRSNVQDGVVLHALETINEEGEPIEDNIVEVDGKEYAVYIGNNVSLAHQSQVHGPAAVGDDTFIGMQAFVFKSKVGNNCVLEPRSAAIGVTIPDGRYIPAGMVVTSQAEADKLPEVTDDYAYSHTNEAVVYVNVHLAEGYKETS

Row | SMILES | Ki [1] | Ki [2]
1 | CCN(CC)C(=S)S [DITIOCARB SODIUM] | 0.004 mM | 
2 | O=[As](O)(O)c1ccccc1 [PHENYLARSONIC ACID] | 0.09 mM | 
3 | OB(O)c1ccccc1 [PHENYLBORONIC ACID] | 0.0098 mM | 
4 | [N-]=[N+]=[N-] [SODIUM AZIDE] | 0.073 mM | 
5 | O=C([O-])O.[Na+] [SODIUM BICARBONATE] | 0.96 mM | 42 mM
6 | O=S([O-])O.[Na+] [SODIUM BISULFITE] | 9.3 mM | 11.7 mM
7 | [Br-].[Na+] [SODIUM BROMIDE] | 0.92 mM | 60 mM
8 | O=C([O-])[O-].[Na+].[Na+] [SODIUM CARBONATE] | 0.89 mM | 6.7 mM
9 | S=C(S)S [SODIUM CARBONOTRITHIOATE] | 0.097 mM | 
10 | [Cl-].[Na+] [SODIUM CHLORIDE] | 0.94 mM | > 200 mM
11 | [F-].[Na+] [SODIUM FLUORIDE] | 0.95 mM | 
12 | S [SODIUM HYDROSULFIDE] | 0.092 mM | 
13 | O=S(=O)(O)ONOS(=O)(=O)O [SODIUM IMINODISULFATE] | 7.7 mM | 
14 | [I-].[Na+] [SODIUM IODIDE] | 8.7 mM | 160 mM
15 | N=C=[Se] [SODIUM ISOSELENOCYANATE] | 0.91 mM | 
16 | N=C=S [SODIUM ISOTHIOCYANATE] | 0.093 mM | 7 mM
17 | O=[N+]([O-])[O-].[Na+] [SODIUM NITRATE] | 8.5 mM | 36.5 mM
18 | O=NO [SODIUM NITRITE] | 3.1 mM | 
19 | [O-][Cl+3]([O-])([O-])O [SODIUM PERCHLORATE] | > 200 mM | 
20 | O=S(=O)(O)OOS(=O)(=O)O [SODIUM PERSULFATE] | 8.7 mM | 
21 | O=[Se](=O)(O)O [SODIUM SELENATE] | 85.5 mM | 
22 | O=S(=O)([O-])[O-].[Na+].[Na+] [SODIUM SULFATE ANHYDROUS] | 8.7 mM | > 200 mM
23 | O=[Te](=O)(O)O [SODIUM TELLURATE] | 16.7 mM | 
24 | O=BOB(O)OB(O)OB=O [SODIUM TETRABORATE] | 71.6 mM | 
25 | F[B-](F)(F)F.[Na+] [SODIUM TETRAFLUOROBORATE] | > 200 mM | 
26 | NS(=O)(=O)O [SULFAMATE] | 0.093 mM | 
27 | NS(N)(=O)=O [SULFAMIDE] | 0.0092 mM | 
